From ChEMBL document CHEMBL6127065, “Design and Synthesis of c-Met and HDAC Dual Inhibitors for the Treatment of Breast Cancer” (ACS Med Chem Lett, 2024)

What was measured:
MDA-MB-453 = experiment: Antiproliferative activity against human MDA-MB-453 cells assessed as reduction in cell growth incubated for 72 hrs by MTT assay; details: MDA-MB-453, 72 h
MDA-MB-231 = experiment: Antiproliferative activity against human MDA-MB-231 cells assessed as reduction in cell growth incubated for 72 hrs by MTT assay; details: MDA-MB-231, 72 h
MDA-MB-468 = experiment: Antiproliferative activity against human MDA-MB-468 cells assessed as reduction in cell growth incubated for 72 hrs by MTT assay; details: MDA-MB-468, 72 h
[1] = target: T1, Protein deacetylase HDAC6 (Homo sapiens) (UniProt Q9UBN7); details: dose 1000.0 nM, time 60.0 min
T1 sequence (whole entry): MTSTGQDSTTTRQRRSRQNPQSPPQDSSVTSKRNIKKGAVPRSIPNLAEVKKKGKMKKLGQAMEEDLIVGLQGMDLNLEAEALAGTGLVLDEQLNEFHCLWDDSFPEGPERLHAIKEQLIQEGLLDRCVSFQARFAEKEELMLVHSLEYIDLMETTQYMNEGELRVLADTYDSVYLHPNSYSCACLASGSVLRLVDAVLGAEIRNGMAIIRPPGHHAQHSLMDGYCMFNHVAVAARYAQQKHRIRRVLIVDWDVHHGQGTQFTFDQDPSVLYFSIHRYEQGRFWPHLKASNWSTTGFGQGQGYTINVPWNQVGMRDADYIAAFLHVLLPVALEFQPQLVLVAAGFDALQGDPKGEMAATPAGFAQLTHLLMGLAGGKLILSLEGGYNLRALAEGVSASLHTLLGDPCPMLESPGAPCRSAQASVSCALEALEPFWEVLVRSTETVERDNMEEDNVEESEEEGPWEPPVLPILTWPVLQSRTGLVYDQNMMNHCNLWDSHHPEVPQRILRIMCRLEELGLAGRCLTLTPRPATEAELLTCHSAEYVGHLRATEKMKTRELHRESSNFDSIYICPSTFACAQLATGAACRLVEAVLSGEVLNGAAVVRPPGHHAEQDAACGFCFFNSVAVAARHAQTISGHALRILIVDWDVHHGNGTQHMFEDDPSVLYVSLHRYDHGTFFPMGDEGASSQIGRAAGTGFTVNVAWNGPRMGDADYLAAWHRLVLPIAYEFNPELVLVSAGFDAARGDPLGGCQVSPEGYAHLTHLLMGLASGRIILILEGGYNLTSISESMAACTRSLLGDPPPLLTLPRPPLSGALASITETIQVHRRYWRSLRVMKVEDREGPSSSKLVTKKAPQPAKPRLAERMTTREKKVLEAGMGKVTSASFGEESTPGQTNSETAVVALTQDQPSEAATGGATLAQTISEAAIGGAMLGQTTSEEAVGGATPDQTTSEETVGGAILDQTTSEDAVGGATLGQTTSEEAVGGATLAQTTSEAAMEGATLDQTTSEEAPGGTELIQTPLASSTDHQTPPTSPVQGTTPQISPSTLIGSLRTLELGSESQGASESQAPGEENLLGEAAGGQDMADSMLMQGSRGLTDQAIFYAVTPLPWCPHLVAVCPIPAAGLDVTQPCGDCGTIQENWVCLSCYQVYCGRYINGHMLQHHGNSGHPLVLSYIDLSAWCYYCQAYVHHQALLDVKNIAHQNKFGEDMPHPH

**Q.** With CC(c1ccc2ncccc2c1)n1nnc2ncc(N3CCN(Cc4ccc(C(=O)Nc5ccc(F)cc5N)cc4)CC3)nc21 (configuration not stated) as the compound, how does the IC50 (MDA-MB-453) read?
**A.** Its IC50 is 6.28 µM.

**Q.** And the IC50 (MDA-MB-231)?
**A.** Its IC50 is 5.91 µM.

**Q.** What about the IC50 (MDA-MB-468) of the same compound?
**A.** Its IC50 is 4.11 µM.

**Q.** How did the IC50 (MDA-MB-453) turn out when CC(c1ccc2ncccc2c1)n1nnc2ncc(N3CCN(Cc4ccc(CC(=O)Nc5ccccc5N)cc4)CC3)nc21 (configuration not stated) was run?
**A.** The IC50 was 8.94 µM.

**Q.** And the IC50 (MDA-MB-231)?
**A.** Its IC50 is 8.64 µM.

**Q.** What about the IC50 (MDA-MB-468) of the same compound?
**A.** The IC50 was 6.35 µM.

**Q.** How did the IC50 (MDA-MB-453) turn out when CC(c1ccc2ncccc2c1)n1nnc2ncc(N3CCN(CCCC(=O)Nc4ccc(F)cc4N)CC3)nc21 (configuration not stated) was run?
**A.** The IC50 was 31.1 µM.

**Q.** And the IC50 (MDA-MB-231)?
**A.** Its IC50 is 26.6 µM.

**Q.** What about the IC50 (MDA-MB-468) of the same compound?
**A.** Its IC50 is 12.1 µM.

**Q.** For CC(c1ccc2ncccc2c1)n1nnc2ncc(N3CCN(CCC(=O)Nc4ccccc4N)CC3)nc21 (configuration not stated), which IC50 (MDA-MB-453) is on record?
**A.** The IC50 was 30.8 µM.

**Q.** And the IC50 (MDA-MB-231)?
**A.** The IC50 was 30.4 µM.

**Q.** And the IC50 (MDA-MB-468)?
**A.** Its IC50 is 21.9 µM.

**Q.** What does the source list for Nc1cc(F)ccc1NC(=O)c1ccc(CNC(=O)/C=C/c2cccnc2)cc1 [TUCIDINOSTAT]?
**A.** IC50 (MDA-MB-453): 0.63 µM; inhibition [1]: 2.6%; IC50 (MDA-MB-231): 1.72 µM; IC50 (MDA-MB-468): 3.48 µM

**Q.** For CC(c1ccc2ncccc2c1)n1nnc2ncc(N3CCN(CC(=O)Nc4ccc(F)cc4N)CC3)nc21 (configuration not stated), which IC50 (MDA-MB-453) is on record?
**A.** Its IC50 is 22.1 µM.

**Q.** And the IC50 (MDA-MB-231)?
**A.** The IC50 was 18.4 µM.

**Q.** What about the IC50 (MDA-MB-468) of the same compound?
**A.** The IC50 was 12.2 µM.

**Q.** Which IC50 (MDA-MB-453) does the source give for CC(c1ccc2ncccc2c1)n1nnc2ncc(N3CCN(CCCC(=O)Nc4ccccc4N)CC3)nc21 (configuration not stated) here?
**A.** The IC50 was 22.9 µM.

**Q.** And the IC50 (MDA-MB-231)?
**A.** Its IC50 is 22.8 µM.

**Q.** And the IC50 (MDA-MB-468)?
**A.** Its IC50 is 18.9 µM.
